Laboratory results: US20250034620A1 (priority 2022, published 2025)
Values joined by “and” are separate entries in the source; they are usually repeats but may differ in a detail not shown here. Equal values may be shown once.

Biological target: H.c.LSU group II intron
Type: biochemical, Histoplasma capsulatum
Settings: logistic fit of kobs against 14 inhibitor concentrations, 5 nM to 300 μM; MB18 readout; 37° C.; read-out: KI (inhibition constant) of the self-splicing reaction

Structure (SMILES): O=C1c2c(O)ccc(O)c2C(=O)c2c(NCCNCCO)ccc(NCCNCCO)c21 [mitoxantrone]
- Ki: 1790 nM and 2240 nM
